Experimental findings from US12617777B2, “GPR84 antagonists and uses thereof” (Liminal BioSciences Limited, priority 2021, dated 2026) are described below.

This test addresses T1, human GPR84 receptor (Homo sapiens, UniProt Q9NQS5).
T1 construct: host or cells: HEK293, transient transfection
The test is described as follows: Gαi biosensor BRET assay in HEK293 cells (antagonism of ZQ-16). It is filed as cell-based. The following applies: for inhibition at 2 µM: HEK293, single concentration 2 μM (designated A); for IC50: HEK293 cells, antagonism of 200 nmol/L ZQ-16; for inhibition at 10 µM: HEK293, single concentration 10 μM (designated F). An excerpt: Background—The following assays can be used for determination of GPR84 activation in living HEK293 cells. The Gai BRET biosensor (Gagnon et al., 2018; Gales et al., 2006. Nat StructMol Biol. 13, 778-86; Saulieres et al., 2012. Nat Chem Biol. 8, 622-30) allows to directly monitor GPR84-mediated activation of Gai. The Gai biosensor consists of a Rluc8-tagged Gαi2 subunit, a GFP10-tagged Gγ2 subunit, and an untagged Gβ1. Agonist stimulation and GPR84 activation triggers a physical separation between the RLuc8-Gαi donor and the GFP10-Gγ2 acceptor, resulting in a decrease in BRET signal whose amplitude is correlated to ligand efficacy (Gales et al., 2006). Moreover, signaling functions of GPCRs are tightly regulated by endocytosis, the targeting of receptors to endosomes and their sorting to lysosomes or recycling to the plasma membrane. The early endosomes (EEs) trafficking assay (Namkung et al., 2016. Nat Commun. 7, 12178) uses Rluc8-tagged GPR84 and Renilla GFP (rGFP) attached to the FYVE domain from human endofin/zinc finger FYVE domain-containing protein 16, which binds phosphatidylinositol 3-phosphate in EEs. Agonist stimulation of GPR84-Rluc8 leads to trafficking of the receptor to EEs, and ensuing increase of the donor concentration relative to the rGFP-FYVE acceptor anchored in the same cellular compartment, and thus results in an increase in BRET signal.
Plasmids—The cDNA clones for human GPR84 receptor, human Gai2, Gp1, and Gy2 were obtained from the cDNA Resource Center (www.cdna.org). GFP10 (F64L, S147P, S202F and H231L variant of Aequorea victoria Green Fluorescent Protein) gBlocks gene fragments (Integrated DNA Technologies, IA) and linker were inserted in frame at the N-terminus of human Gγ2. Rluc8 (A55T, C124A, S130A, K136R, A143M, M185V, M253L, and S287L variant of the Renilla renformis luciferase) gBlocks gene fragment was inserted with linkers in frame in between residues 91 and 92 of Gai2 or at the C-terminus of GPR84. The FYVE domain from human endofin (residues Q739 to K806) attached in frame at the C terminus of a humanized Renilla GFP (rGFP), were synthesized as gBlocks gene fragments.
Bioluminescence Resonance Energy Transfer (BRET) Measurement—HEK293 cells were transfected with GPR84-Rluc8 and rGFP-FYVE for the EEs trafficking biosensor or with GPR84, Gαi2-Rluc8, GFP10-Gγ2, and Gβ1 for the Gαi biosensor. The following day, transiently transfected cells were seeded in 96-well white clear bottom microplates coated with poly-D-lysine and left in culture for 24 hours. Cells were washed once with Tyrode's buffer (140 mmol/L NaCl, 1 mmol/L CaCl2, 2.7 mmol/L KCl, 0.49 mmol/L MgCl2, 0.37 mmol/L NaH2PO4, 5.6 mmol/L glucose, 12 mmol/L NaHCO3, and 25 mmol/L HEPES, pH 7.5) before performing assays in Tyrode's buffer. Test compounds were incubated with cells for 5 (Gαi) or 15 (EEs) minutes at 37° C. before addition of 200 nmol/L of the GPR84 agonist ZQ-16 (2-(Hexylthio)-6-hydroxy-4(3H)-pyrimidinone) for 5 minutes at room temperature (Gαi) or 30 minutes at 37° C. (EEs). The Rluc8 substrate coelenterazine 400A (Prolume, Lakeside, AZ) was added at a final concentration of 5 μmol/L and BRET readings were collected using an Infinite M1000 microplate reader (Tecan, Morrisville, NC). BRET^2 readings between Rluc8 and GFP10 or rGFP were collected by sequential integration of the signals detected in the 370 to 450 nm (Rluc8) and 510 to 540 nm (GFP10, rGFP) windows. The BRET signal was calculated as the ratio of light emitted by acceptor (GFP10, rGFP) over the light emitted by donor (Rluc8). The values were corrected to net BRET by subtracting the background BRET signal obtained in cells transfected with Rluc8 constructs alone. Ligand-promoted net BRET values were calculated by subtracting vehicle-induced net BRET from ligand-induced net BRET.
For orientation: In BRET a luciferase serves as donor, and the signal depends on an acceptor being close.

T1 sequence (Q9NQS5 whole entry): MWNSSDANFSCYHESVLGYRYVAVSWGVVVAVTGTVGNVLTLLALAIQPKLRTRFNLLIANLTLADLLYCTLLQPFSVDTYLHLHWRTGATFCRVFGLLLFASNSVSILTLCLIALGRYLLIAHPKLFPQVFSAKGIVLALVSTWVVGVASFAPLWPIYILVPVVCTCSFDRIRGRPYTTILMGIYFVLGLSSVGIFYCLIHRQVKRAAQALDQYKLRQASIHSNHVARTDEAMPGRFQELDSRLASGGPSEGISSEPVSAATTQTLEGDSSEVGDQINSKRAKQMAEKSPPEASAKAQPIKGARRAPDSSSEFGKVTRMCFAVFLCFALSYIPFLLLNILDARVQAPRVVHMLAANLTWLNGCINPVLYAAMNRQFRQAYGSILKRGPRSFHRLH

Take `Cc1cccc(-c2cn(CC#Cc3cnc(-c4cn(CC5CCCCO5)nn4)c(C)c3)nn2)c1` (stereo not shown) [Compound I-718]: the inhibition – broadly, the percentage by which the read-out fell short of the control – at 2 µM is above 75% and the concentration for half-maximal inhibition (IC50) (commonly the concentration that inhibits the measured activity by half) fell in the range of 0.3 to 1 µM.

In turn, `Cc1cc(C#CCNC(=O)C(C)(C)C)ccc1-c1cn(CC2CCCCO2)nn1` (stereo not shown) [Compound I-208] yielded an inhibition at 10 µM of 25 to 50%. In turn, `CCc1cc(N2CC(C)(C)C2)ccc1-c1cn(CC2Oc3ccccc3O2)nn1` [Compound I-647] had an inhibition at 2 µM above 75% and an IC50 of 0.3 to 1 µM. For `Cc1ccc(C#CC2CC2)cc1C(OCC(F)(F)F)c1cn(CC2OCC(C)(C)CO2)nn1` (stereo not shown) [Compound I-617, 4-((5-(cyclopropylethynyl)-2-methylphenyl)(2,2,2-trifluoroethoxy)methyl)-1-((5,5-dimethyl-1,3-dioxan-2-yl)methyl)-1H-1,2,3-triazole], the inhibition at 10 µM is above 75% and the IC50 was at most 0.3 µM. As for `CC(c1cccc(C#CC2CC2)c1)c1cn(CC2CCCCO2)nn1` (stereo not shown) [Compound I-302], the inhibition at 10 µM was above 75%.

The compound `Cc1cc(C#CC2CC2)ccc1-c1cn(Cc2cncn2C)nn1` [Compound I-528] displayed an inhibition at 10 µM of at most 25%. As for `COCC#Cc1ccc(-c2cn(CC3OCC(C)(C)CO3)nn2)c(N(C)C)c1` [Compound I-829], the inhibition at 10 µM is above 75% and the half-maximal inhibitory concentration (IC50) is at most 0.3 µM. The compound `COCC#Cc1cnc(-c2cn(CC3OCC(C)(C)CO3)cn2)c(OC2CC2)c1` [Compound I-848] showed an inhibition at 10 µM of at most 25%.

`Cc1cc(C#CC2CC2)ccc1-c1cn(CC23CC4CC(CC(C4)O2)C3)nn1` [Compound I-523] yielded an inhibition at 2 µM of at most 25%. As to `Cc1cc(N2CC(C)(CO)C2)ccc1-c1cn(CC2CCCCO2)nn1` (stereo not shown) [Compound I-263], the inhibition at 10 µM was above 75%.

Consider `Cc1cc(C#CC2CC2)ccc1-c1nn(CC2CCCCO2)c(=O)o1` (stereo not shown) [Compound I-15], for which the inhibition at 10 µM is at most 25%.

`Cc1ccc(C#CC2CC2)cc1Oc1cn(CC2OCC(C)(C)CO2)nn1` [Compound I-773] registered an IC50 of 0.3 to 1 µM. `Cc1cc(N2CCC(N(C)C)CC2)ccc1-c1cn(CC2CCCCO2)nn1` (stereo not shown) [Compound I-129] yielded an inhibition at 10 µM of at most 25%.

The compound `Cc1cc(N2CCN(Cc3cncnc3)CC2)ccc1-c1cn(CC2CCCCO2)nn1` (stereo not shown) [Compound I-566] came in with an inhibition at 10 µM of 25 to 50%.

`Cc1cc(C#CC2CC2)ccc1-c1cn(CC2OCCCO2)nn1` [Compound I-91] had an IC50 of 1 to 3 µM. The compound `COC(Cc1cc(C#CC2CC2)ccc1C)c1cn(CC2OCC(C)(C)CO2)nn1` (stereo not shown) [Compound I-753] returned an inhibition at 10 µM above 75%. In turn, `Cc1cc(C#CCn2cc(-c3ccc(N(C)C)cc3)nn2)cnc1-c1cn(CC2OCC(C)(C)CO2)nn1` [Compound I-668] gave an inhibition at 2 µM above 75% and an IC50 of at most 0.3 µM.

For `Cc1ccc(C(C)(C)O)cc1N(C)c1cn(CC2OCC(C)(C)CO2)nn1` [Compound I-830], the inhibition at 10 µM lay in the range of 50 to 75%. On the same count and under the same terms, the figure for `Cc1cc(N2CC(C)(CO)C2)ccc1-c1cn(CC2OCC(C)(C)O2)nn1` (stereo not shown) [Compound I-626] is 25 to 50%; for `Cc1cc(C#CCN2CC(C)(C)C2)cnc1-c1cn(CC2Oc3ccccc3O2)nn1` [Compound I-627] it is above 75%; for `COC1CCCN(c2ccc(-c3cn(CC4CCCCO4)nn3)c(C)c2)C1` (stereo not shown) [Compound I-428] it is 25 to 50%. For `Cc1cc(OCc2ccccn2)ccc1-c1cn(CC2CCCCO2)nn1` (stereo not shown) [Compound I-54], the IC50 was in the range of 0.3 to 1 µM. Besides, the inhibition at 25 µM (HEK293, single concentration 25 μM (designated I)) fell in the range of 50 to 75%. For `Cc1cc(C#CC2CC2)cnc1-c1cn(CC2CCC(C)(C)O2)nn1` (stereo not shown) [Compound I-252], the inhibition at 10 µM fell in the range of 25 to 50%.

Compound `Cc1cc(C#CC2CC2)ccc1-c1cn(CC2CNCCO2)nn1` (stereo not shown) [Compound I-180] displayed an inhibition at 10 µM of at most 25%. As to `CN(C)c1cc(N2CC(C)(CO)C2)c(F)cc1-c1cn(CC2OCC3(CC3)CO2)nn1` [Compound I-784], the IC50 is at most 0.3 µM. For `Cc1cc(C#CC2CC2)ccc1-c1cn(CC2CC(F)(F)CO2)nn1` (stereo not shown) [Compound I-489], the inhibition at 2 µM was at most 25%.

On to `Cc1cc(N2CC(C)(CO)C2)ccc1-c1cn(CC2OCC(C)(C)CO2)nn1` [Compound I-614], for which the inhibition at 10 µM was in the range of 50 to 75%. For the compound `CC1(C)COC(Cn2cc(-c3ncc(C#CCO)cc3OC3CC3)nn2)OC1` [Compound I-771], the IC50 is at most 0.3 µM. As to `Cc1cc(N2CCN(Cc3ccccn3)CC2)ccc1-c1cncn1CC1OCC(C)(C)CO1` [Compound I-683], the inhibition at 10 µM was at most 25%. On the same count and under the same terms, for `COC1CN(c2ccc(-c3cn(CC4CCCCO4)nn3)c(C)c2)C1` (stereo not shown) [Compound I-507] the value was 25 to 50%; for `Cc1cc(C(=O)NCC2CC2)ccc1-c1cn(CC2CCCCO2)nn1` (stereo not shown) [Compound I-357], 50 to 75%.

Take `Cc1ccc(C#CC2CC2)cc1C(CC(F)(F)F)c1cn(CC2OCC(C)(C)CO2)nn1` (stereo not shown) [Compound I-681]: the inhibition at 2 µM is above 75% and the IC50 lay within 0.3 to 1 µM. `Cc1cc(C#CCn2cc(-c3ccccc3)nn2)cnc1-c1cn(CC2CCCCO2)nn1` (stereo not shown) [Compound I-720] showed an inhibition at 10 µM above 75% and a 50% inhibitory concentration (IC50) of 0.3 to 1 µM. On the same counts, the results for `C=C(c1cncc(C#CC2CC2)c1)c1cn(CC2CCCCO2)nn1` (stereo not shown) [Compound I-427] are 25 to 50% and above 3 µM. For `CCc1cc(C#CCNC(=O)OC)ccc1-c1cn(CC2CCCCO2)nn1` (stereo not shown) [Compound I-586] the same measures were above 75% and 1 to 3 µM. On to `CC1(C)CN(c2ccc(-c3cn(CC4CCCCO4)nn3)c(OCCO)c2)C1` (stereo not shown) [Compound I-280], for which the inhibition at 10 µM was above 75%. Turning to `Cc1cc(C#CC2CC2)ccc1-c1cn(Cc2ccn(C)n2)nn1` [Compound I-543], the inhibition at 2 µM was at most 25%. Compound `Cc1ccc(N2CC(C)(C)C2)cc1-c1cn(CC2CCCCO2)nn1` (stereo not shown) [Compound I-213] showed an inhibition at 10 µM of at most 25%.

In turn, `CC1(C)CN(c2ccc(-c3cn(CC4CCCCO4)nn3)c(C(F)(F)F)c2)C1` (stereo not shown) [Compound I-255] displayed an inhibition at 10 µM of 25 to 50%. Compound `Cc1cc(C#CCn2ccnn2)cnc1-c1cn(CC2CCCCO2)nn1` (stereo not shown) [Compound I-841, 5-(3-(1H-1,2,3-triazol-1-yl)prop-1-yn-1-yl)-3-methyl-2-(1-((tetrahydro-2H-pyran-2-yl)methyl)-1H-1,2,3-triazol-4-yl)pyridine] had an inhibition at 2 µM above 75%. The compound `Cc1cc(N2CCN(Cc3ccccn3)CC2)ccc1-c1cn(CC2OCC(C)(C)CO2)cn1` [Compound I-682] displayed an inhibition at 10 µM above 75% and an IC50 of 0.3 to 1 µM. As for `CC1(C)COC(Cn2cc(-c3ncc(C#CC4CC4)cc3OC3CC3)nn2)OC1` [Compound I-702], the inhibition at 2 µM is above 75% and the IC50 is at most 0.3 µM. In the case of `CC(C)c1cc(C#CC2CC2)ccc1-c1cn(CC2CCOCC2)nn1` [Compound I-212], the inhibition at 10 µM was at most 25%. On the same count and under the same terms, for `Cc1cc(C#CC2CC(F)(F)C2)cnc1-c1cn(CC2CCCCO2)nn1` (stereo not shown) [Compound I-648] the value was above 75%; for `Cc1cc(C#CC2CC2)ccc1-c1cn(Cc2nccn2C)nn1` [Compound I-517], at most 25%.

For the compound `FC(F)(F)c1ccc(C#CC2CC2)cc1-c1cn(CC2CCCCO2)nn1` (stereo not shown) [Compound I-179], the inhibition at 10 µM lay in the range of 25 to 50%.
